Measurements from PubChem BioAssay AID256 (DTP/NCI, 2004).
Several values for one entry are separate records, joined by “and”; a condition that tells them apart may be missing. Equal entries are not always repeated. Toxic doses and inconclusive results are not listed.

Tested on: CD2F1 mice, L1210 leukemia ip, survival T/C
Test: NCI In Vivo Anticancer Drug Screen. Data for tumor model L1210 Leukemia (intraperitoneal) in CD2F1 (CDF1) mice
Conditions: higher = longer survival
In short: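 In this screen, transplantable tumors were grown in mice given either the compound or its vehicle. Results were expressed as the treated measurement relative to the control measurement.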

[1] = endpoint: mean survival time, dose: 25.0 mg/kg/injection, schedule: Q01DX009 (ip), vehicle: saline with Tween-80
[2] = endpoint: mean survival time, dose: 25.0 mg/kg/injection, schedule: Q01DX009 (ip), vehicle: saline
[3] = endpoint: mean survival time, dose: 50.0 mg/kg/injection, schedule: Q01DX009 (ip), vehicle: saline with Tween-80
[4] = endpoint: mean survival time, dose: 50.0 mg/kg/injection, schedule: Q01DX009 (ip), vehicle: saline
[5] = endpoint: mean survival time, dose: 100.0 mg/kg/injection, schedule: Q01DX009 (ip), vehicle: saline with Tween-80
[6] = endpoint: mean survival time, dose: 100.0 mg/kg/injection, schedule: Q01DX001 (ip), vehicle: saline with Tween-80
[7] = endpoint: mean survival time, dose: 200.0 mg/kg/injection, schedule: Q01DX001 (ip), vehicle: saline with Tween-80
[8] = endpoint: mean survival time, dose: 400.0 mg/kg/injection, schedule: Q01DX001 (ip), vehicle: saline with Tween-80
[9] = endpoint: mean survival time, dose: 100.0 mg/kg/injection, schedule: Q01DX009 (ip), vehicle: other
[10] = endpoint: mean survival time, dose: 200.0 mg/kg/injection, schedule: Q01DX009 (ip), vehicle: other
[11] = endpoint: mean survival time, dose: 100.0 mg/kg/injection, schedule: Q04DX003 (ip), vehicle: saline with Tween-80
[12] = endpoint: mean survival time, dose: 200.0 mg/kg/injection, schedule: Q04DX003 (ip), vehicle: saline with Tween-80
[13] = endpoint: mean survival time, dose: 400.0 mg/kg/injection, schedule: Q04DX003 (ip), vehicle: saline with Tween-80
[14] = endpoint: mean survival time, dose: 100.0 mg/kg/injection, schedule: Q04DX003 (ip), vehicle: saline
[15] = endpoint: mean survival time, dose: 200.0 mg/kg/injection, schedule: Q04DX003 (ip), vehicle: saline
[16] = endpoint: mean survival time, dose: 400.0 mg/kg/injection, schedule: Q04DX003 (ip), vehicle: saline
[17] = endpoint: mean survival time, dose: 200.0 mg/kg/injection, schedule: Q01DX009 (ip), vehicle: saline with Tween-80
[18] = endpoint: mean survival time, dose: 400.0 mg/kg/injection, schedule: Q01DX009 (ip), vehicle: saline with Tween-80
[19] = endpoint: mean survival time, dose: 5.0 mg/kg/injection, schedule: Q01DX001 (ip), vehicle: saline

## CCN(CC)CCC(=O)c1ccccc1
endpoint: mean survival time, dose: 3.12 mg/kg/injection, schedule: Q01DX009 (ip), vehicle: saline with Tween-80
  T/C: 100 % of control
endpoint: mean survival time, dose: 3.12 mg/kg/injection, schedule: Q01DX009 (ip), vehicle: suspension in saline
  T/C: 96 % of control
endpoint: mean survival time, dose: 6.25 mg/kg/injection, schedule: Q01DX009 (ip), vehicle: saline with Tween-80
  T/C: 103 % of control
endpoint: mean survival time, dose: 6.25 mg/kg/injection, schedule: Q01DX009 (ip), vehicle: suspension in saline
  T/C: 95 % of control
endpoint: mean survival time, dose: 12.5 mg/kg/injection, schedule: Q01DX009 (ip), vehicle: saline with Tween-80
  T/C: 102 % of control
endpoint: mean survival time, dose: 12.5 mg/kg/injection, schedule: Q01DX009 (ip), vehicle: saline
  T/C: 90 % of control
endpoint: mean survival time, dose: 12.5 mg/kg/injection, schedule: Q01DX009 (ip), vehicle: suspension in saline
  T/C: 96 % of control
[1]
  T/C: 103 % of control
[2]
  T/C: 94 % of control
endpoint: mean survival time, dose: 25.0 mg/kg/injection, schedule: Q01DX009 (ip), vehicle: suspension in saline
  T/C: 106 % of control
[3]
  T/C: 101 % of control
[4]
  T/C: 92 % of control
endpoint: mean survival time, dose: 50.0 mg/kg/injection, schedule: Q01DX009 (ip), vehicle: suspension in saline
  T/C: 106 % of control
[5]
  T/C: 93 % of control

## C1CCC(C2CCCC[N-]2)[N-]C1.[Cl][Pt].[NH-]C(CC(N)=O)C(=O)O (stereo unspecified)
endpoint: median survival time, dose: 10.0 mg/kg/injection, schedule: Q04DX003 (ip), vehicle: saline
  T/C: 101 % of control
endpoint: median survival time, dose: 20.0 mg/kg/injection, schedule: Q04DX003 (ip), vehicle: saline
  T/C: 93 % of control
endpoint: median survival time, dose: 40.0 mg/kg/injection, schedule: Q04DX003 (ip), vehicle: saline
  T/C: 98 % of control
endpoint: median survival time, dose: 80.0 mg/kg/injection, schedule: Q04DX003 (ip), vehicle: saline
  T/C: 91 % of control and 104 % of control
endpoint: median survival time, dose: 160.0 mg/kg/injection, schedule: Q04DX003 (ip), vehicle: saline
  T/C: 95 % of control
endpoint: median survival time, dose: 320.0 mg/kg/injection, schedule: Q04DX003 (ip), vehicle: saline
  T/C: 86 % of control

## CN(C)CCNCc1cn(C2CC(O)C(CO)O2)c(=O)[nH]c1=O (stereo unspecified)
endpoint: mean survival time, dose: 12.5 mg/kg/injection, schedule: Q01DX005 (ip), vehicle: water
  T/C: 105 % of control
endpoint: mean survival time, dose: 25.0 mg/kg/injection, schedule: Q01DX005 (ip), vehicle: water
  T/C: 103 % of control
endpoint: mean survival time, dose: 50.0 mg/kg/injection, schedule: Q01DX005 (ip), vehicle: water
  T/C: 106 % of control
endpoint: mean survival time, dose: 100.0 mg/kg/injection, schedule: Q01DX005 (ip), vehicle: water
  T/C: 103 % of control
endpoint: mean survival time, dose: 200.0 mg/kg/injection, schedule: Q01DX005 (ip), vehicle: water
  T/C: 114 % of control

## CN(N=C(C1CC1)C1CC1)c1ccccc1
[6]
  T/C: 100 % of control
[7]
  T/C: 107 % of control
[8]
  T/C: 105 % of control

## O=c1n(-c2ccccc2)c(=O)n2n1CC(c1ccccc1)=N2
endpoint: mean survival time, dose: 12.5 mg/kg/injection, schedule: Q01DX009 (ip), vehicle: other
  T/C: 97 % of control
endpoint: mean survival time, dose: 25.0 mg/kg/injection, schedule: Q01DX009 (ip), vehicle: other
  T/C: 100 % of control
endpoint: mean survival time, dose: 50.0 mg/kg/injection, schedule: Q01DX009 (ip), vehicle: other
  T/C: 97 % of control
[9]
  T/C: 103 % of control
[10]
  T/C: 96 % of control

## Cc1ccc(C(=O)c2ccccc2C(=O)O)cc1O
[11]
  T/C: 98 % of control
[12]
  T/C: 101 % of control
[13]
  T/C: 106 % of control

## C=C=CCCCCCCCC
[11]
  T/C: 102 % of control
[12]
  T/C: 98 % of control
[13]
  T/C: 105 % of control

## O=S(=O)(O)c1cncc(S(=O)(=O)O)n1
endpoint: mean survival time, dose: 100.0 mg/kg/injection, schedule: Q01DX009 (ip), vehicle: saline
  T/C: 90 % of control
[14]
  T/C: 100 % of control
endpoint: mean survival time, dose: 200.0 mg/kg/injection, schedule: Q01DX009 (ip), vehicle: saline
  T/C: 97 % of control
[15]
  T/C: 98 % of control
endpoint: mean survival time, dose: 400.0 mg/kg/injection, schedule: Q01DX009 (ip), vehicle: saline
  T/C: 100 % of control
[16]
  T/C: 93 % of control

## CN(C)C(=O)c1cc2ccccc2n1C
[6]
  T/C: 97 % of control
[7]
  T/C: 98 % of control
[8]
  T/C: 94 % of control

## Clc1ccc(COCc2ccccc2Cn2ccnc2)cc1
[1]
  T/C: 98 % of control
[3]
  T/C: 104 % of control
[5]
  T/C: 96 % of control and 105 % of control

## CC(NC(=O)NCCCl)c1ccccc1 (stereo unspecified)
[2]
  T/C: 88 % of control
[4]
  T/C: 86 % of control

## N#Cc1c(F)c(F)c(Oc2c(F)c(F)c(F)c(F)c2F)c(F)c1Oc1c(F)c(F)c(F)c(F)c1F
[11]
  T/C: 96 % of control
[12]
  T/C: 93 % of control
[13]
  T/C: 88 % of control

## CC12CCC(=O)CC1CCC1C2CCC2(C)C(C(=O)O)CCC12 (stereo unspecified)
[6]
  T/C: 96 % of control
[7]
  T/C: 102 % of control
[8]
  T/C: 96 % of control

## O=C(O)c1ccc(CC23CC4CC(CC(C4)C2)C3)cc1
[6]
  T/C: 91 % of control
[5]
  T/C: 96 % of control
[17]
  T/C: 91 % of control
[8]
  T/C: 91 % of control
[18]
  T/C: 86 % of control

## CCCCCCCCCCCCCCC/C(=C\c1ccc2ccccc2c1)[N+](=O)[O-]
endpoint: mean survival time, dose: 75.0 mg/kg/injection, schedule: Q01DX001 (ip), vehicle: other
  T/C: 95 % of control
endpoint: mean survival time, dose: 150.0 mg/kg/injection, schedule: Q01DX001 (ip), vehicle: other
  T/C: 89 % of control
endpoint: mean survival time, dose: 300.0 mg/kg/injection, schedule: Q01DX001 (ip), vehicle: other
  T/C: 102 % of control

## Cc1cccc(CNc2ccc(S(=O)(=O)c3ccc(NCc4cccc(C)n4)cc3)cc2)n1
[14]
  T/C: 97 % of control
[15]
  T/C: 112 % of control
[16]
  T/C: 93 % of control

## NC(=O)OCCc1c2ccccc2nc2ccccc12
endpoint: mean survival time, dose: 25.0 mg/kg/injection, schedule: Q04DX002 (ip), vehicle: other
  T/C: 96 % of control
endpoint: mean survival time, dose: 50.0 mg/kg/injection, schedule: Q04DX002 (ip), vehicle: other
  T/C: 93 % of control
endpoint: mean survival time, dose: 100.0 mg/kg/injection, schedule: Q04DX002 (ip), vehicle: other
  T/C: 93 % of control
endpoint: mean survival time, dose: 100.0 mg/kg/injection, schedule: Q04DX002 (ip), vehicle: saline with Tween-80
  T/C: 105 % of control
endpoint: mean survival time, dose: 400.0 mg/kg/injection, schedule: Q04DX002 (ip), vehicle: saline with Tween-80
  T/C: 105 % of control

## NC(=O)NC1OC(CO)C(O)C(O)C1O (stereo unspecified)
[14]
  T/C: 100 % of control
[15]
  T/C: 100 % of control
[16]
  T/C: 105 % of control

## Cc1ccc2c(ccc3nc(N)nc(N)c32)c1
[19]
  T/C: 100 % of control
endpoint: mean survival time, dose: 10.0 mg/kg/injection, schedule: Q01DX001 (ip), vehicle: saline
  T/C: 89 % of control
endpoint: mean survival time, dose: 20.0 mg/kg/injection, schedule: Q01DX001 (ip), vehicle: saline
  T/C: 95 % of control
endpoint: mean survival time, dose: 40.0 mg/kg/injection, schedule: Q01DX001 (ip), vehicle: saline
  T/C: 95 % of control

## CCOP(=O)(OCC)C(C#N)Cc1ccccc1OC (stereo unspecified)
[14]
  T/C: 98 % of control
[15]
  T/C: 101 % of control

## CCCCCCCCCSCC
[5]
  T/C: 100 % of control
[17]
  T/C: 100 % of control
[18]
  T/C: 88 % of control

## COCCOCCOCCOCCOCCOCCOCCOCCOCCOCCOC(=O)N(CC[PH+](c1ccccc1)c1ccccc1)CC[PH+](c1ccccc1)c1ccccc1.[Cl][Pt][Cl]
endpoint: median survival time, dose: 3.13 mg/kg/injection, schedule: Q04DX003 (ip), vehicle: distilled water + Tween-80
  T/C: 101 % of control
endpoint: median survival time, dose: 6.25 mg/kg/injection, schedule: Q04DX003 (ip), vehicle: distilled water + Tween-80
  T/C: 100 % of control
endpoint: median survival time, dose: 12.5 mg/kg/injection, schedule: Q04DX003 (ip), vehicle: distilled water + Tween-80
  T/C: 104 % of control
endpoint: median survival time, dose: 25.0 mg/kg/injection, schedule: Q04DX003 (ip), vehicle: distilled water + Tween-80
  T/C: 96 % of control
endpoint: median survival time, dose: 50.0 mg/kg/injection, schedule: Q04DX003 (ip), vehicle: distilled water + Tween-80
  T/C: 115 % of control
endpoint: median survival time, dose: 100.0 mg/kg/injection, schedule: Q04DX003 (ip), vehicle: distilled water + Tween-80
  T/C: 100 % of control
endpoint: median survival time, dose: 200.0 mg/kg/injection, schedule: Q04DX003 (ip), vehicle: distilled water + Tween-80
  T/C: 98 % of control

## Nc1nc(N)c2cc(CNc3ccc(C(=O)NC(CC(=O)O)C(=O)O)c(Cl)c3)ccc2n1 (stereo unspecified)
[19]
  T/C: 160 % of control

## Brc1ccc([Si](c2ccccc2)(c2ccccc2)c2ccc(-c3ccccc3)cc2)cc1
[9]
  T/C: 102 % of control
[10]
  T/C: 96 % of control
endpoint: mean survival time, dose: 400.0 mg/kg/injection, schedule: Q01DX009 (ip), vehicle: other
  T/C: 96 % of control

## Clc1c(Cl)c(CBr)c(Cl)c(-c2c(Cl)c(Cl)c(Cl)c(CBr)c2Cl)c1Cl
[11]
  T/C: 93 % of control
[12]
  T/C: 107 % of control
[13]
  T/C: 104 % of control
